According to ChEMBL document CHEMBL1142514, “Improved synthesis of 6-epi-dictyostatin and antitumor efficacy in mice bearing MDA-MB231 human breast cancer xenografts” (2008):

Experiments:
Format in all cases: functional
MDA-MB-231 [1] = assay: Antitumor activity against human MDA-MB-231 cells xenografted in CB17 SCID mouse assessed as two tumor doubling time administered at 20 mg/kg, iv q7d in 3 schedule
MDA-MB-231 [2] = assay: Antitumor activity against human MDA-MB-231 cells xenografted in CB17 SCID mouse assessed as one tumor doubling time administered at 20 mg/kg, iv q7d in 3 schedule
MDA-MB-231 [3] = assay: Antitumor activity against human MDA-MB-231 cells xenografted in CB17 SCID mouse assessed as ratio of median tumor volume for drug to control administered at 20 mg/kg, iv q7d in 3 schedule after 14 days
MDA-MB-231 [4] = assay: Antitumor activity against human MDA-MB-231 cells xenografted in CB17 SCID mouse assessed as ratio of median tumor volume for drug to vehicle administered at 20 mg/kg, iv q7d in 3 schedule after 17 days

How did the Activity (MDA-MB-231 [1]) turn out when CC(=O)O[C@H]1C(=O)[C@@]2(C)[C@H]([C@H](OC(=O)c3ccccc3)[C@]3(O)C[C@H](OC(=O)[C@H](O)[C@@H](NC(=O)c4ccccc4)c4ccccc4)C(C)=C1C3(C)C)[C@]1(OC(C)=O)CO[C@@H]1C[C@@H]2O [PACLITAXEL] was run?
Its Activity is 19 days.

What about the Activity (MDA-MB-231 [2]) of the same compound?
Its Activity is 7.9 days.

What about the T/C (MDA-MB-231 [3]) of the same compound?
Its T/C is 33%.

What about the Activity (MDA-MB-231 [4]) of the same compound?
Its Activity is 31%.
